The nature of the data set: Solubility of ketoprofen/dexamethasone owing to encapsulation in the polymers. As to conditions: water.

≈ marks a conversion by molar mass, not a printed value.

The compound `C[C@@H]1C[C@H]2[C@@H]3CCC4=CC(=O)C=C[C@]4(C)[C@@]3(F)[C@@H](O)C[C@]2(C)[C@@]1(O)C(=O)CO` [Dexamethasone] had a solubility of 90 µg/mL (≈ 229 µM).

The record behind these values is patent US20170130052A1, “A POLYMER BASED ON A MALTODEXTRIN FOR ENCAPSULATING ORGANIC COMPOUNDS” (ROQUETTE ITALIA S.P.A., priority 2014, published 2017).
